US12479847B2 (DANA-FARBER CANCER INSTITUTE, INC., priority 2019, dated 2025)

How the values were obtained:
Assay in all cases: KINOMEscan (ScanMAX) kinase profiling
Format in all cases: binding
panel of 468 kinases [1] = target: T1, panel of 468 kinases (Homo sapiens, UniProt Q13555); details: CAMK2G; 1 μM; read-out: % control
T1 construct: purchased KINOMEscan (ScanMAX) service

panel of 468 kinases [2] = target: T2, panel of 468 kinases (Homo sapiens, UniProt Q13873); details: BMPR2; 1 μM; read-out: % control
T2 construct: purchased KINOMEscan (ScanMAX) service
T2 sequence (Q13873 27-1038): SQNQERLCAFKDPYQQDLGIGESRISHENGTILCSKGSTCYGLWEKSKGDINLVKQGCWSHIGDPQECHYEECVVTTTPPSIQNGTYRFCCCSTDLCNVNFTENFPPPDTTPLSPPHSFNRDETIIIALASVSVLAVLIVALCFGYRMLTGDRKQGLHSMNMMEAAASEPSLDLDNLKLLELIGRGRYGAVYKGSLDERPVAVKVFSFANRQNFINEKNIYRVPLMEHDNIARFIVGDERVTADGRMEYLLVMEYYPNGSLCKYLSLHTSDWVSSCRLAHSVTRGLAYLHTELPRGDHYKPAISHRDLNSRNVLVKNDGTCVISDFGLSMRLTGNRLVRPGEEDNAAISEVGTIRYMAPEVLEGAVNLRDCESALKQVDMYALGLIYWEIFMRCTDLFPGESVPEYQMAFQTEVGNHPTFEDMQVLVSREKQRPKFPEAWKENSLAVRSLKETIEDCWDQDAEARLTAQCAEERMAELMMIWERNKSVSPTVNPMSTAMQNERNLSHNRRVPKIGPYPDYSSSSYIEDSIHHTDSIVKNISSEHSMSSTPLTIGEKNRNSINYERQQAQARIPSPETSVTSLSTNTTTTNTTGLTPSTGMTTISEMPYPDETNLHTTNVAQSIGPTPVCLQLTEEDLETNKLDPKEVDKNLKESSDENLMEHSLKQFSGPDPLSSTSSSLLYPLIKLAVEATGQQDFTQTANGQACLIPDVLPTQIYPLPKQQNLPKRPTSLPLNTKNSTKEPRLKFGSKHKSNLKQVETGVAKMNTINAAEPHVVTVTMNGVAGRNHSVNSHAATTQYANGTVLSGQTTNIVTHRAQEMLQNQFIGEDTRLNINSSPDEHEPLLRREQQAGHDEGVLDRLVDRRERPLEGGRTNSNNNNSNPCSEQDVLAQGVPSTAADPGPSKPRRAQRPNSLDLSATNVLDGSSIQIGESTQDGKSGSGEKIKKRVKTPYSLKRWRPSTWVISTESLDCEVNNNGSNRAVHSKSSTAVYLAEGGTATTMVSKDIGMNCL

panel of 468 kinases [3] = target: T3, panel of 468 kinases (Homo sapiens, UniProt Q8IU85); details: CAMK1D; 1 μM; read-out: % control
T3 construct: purchased KINOMEscan (ScanMAX) service
T3 sequence (Q8IU85 whole entry): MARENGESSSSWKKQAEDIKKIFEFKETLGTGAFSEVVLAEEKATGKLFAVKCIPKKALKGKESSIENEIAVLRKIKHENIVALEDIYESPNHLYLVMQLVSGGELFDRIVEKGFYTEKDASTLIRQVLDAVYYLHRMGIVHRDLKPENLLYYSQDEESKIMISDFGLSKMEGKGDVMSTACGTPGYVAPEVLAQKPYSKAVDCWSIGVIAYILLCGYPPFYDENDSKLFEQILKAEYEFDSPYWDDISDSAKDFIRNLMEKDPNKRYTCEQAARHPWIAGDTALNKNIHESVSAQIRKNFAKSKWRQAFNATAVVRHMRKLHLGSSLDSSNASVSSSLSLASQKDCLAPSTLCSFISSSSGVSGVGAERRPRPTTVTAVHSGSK

panel of 468 kinases [4] = target: T4, panel of 468 kinases (Homo sapiens, UniProt Q8IYT8); details: ULK2; 1 μM; read-out: % control
T4 construct: purchased KINOMEscan (ScanMAX) service
T4 sequence (Q8IYT8 1-1036): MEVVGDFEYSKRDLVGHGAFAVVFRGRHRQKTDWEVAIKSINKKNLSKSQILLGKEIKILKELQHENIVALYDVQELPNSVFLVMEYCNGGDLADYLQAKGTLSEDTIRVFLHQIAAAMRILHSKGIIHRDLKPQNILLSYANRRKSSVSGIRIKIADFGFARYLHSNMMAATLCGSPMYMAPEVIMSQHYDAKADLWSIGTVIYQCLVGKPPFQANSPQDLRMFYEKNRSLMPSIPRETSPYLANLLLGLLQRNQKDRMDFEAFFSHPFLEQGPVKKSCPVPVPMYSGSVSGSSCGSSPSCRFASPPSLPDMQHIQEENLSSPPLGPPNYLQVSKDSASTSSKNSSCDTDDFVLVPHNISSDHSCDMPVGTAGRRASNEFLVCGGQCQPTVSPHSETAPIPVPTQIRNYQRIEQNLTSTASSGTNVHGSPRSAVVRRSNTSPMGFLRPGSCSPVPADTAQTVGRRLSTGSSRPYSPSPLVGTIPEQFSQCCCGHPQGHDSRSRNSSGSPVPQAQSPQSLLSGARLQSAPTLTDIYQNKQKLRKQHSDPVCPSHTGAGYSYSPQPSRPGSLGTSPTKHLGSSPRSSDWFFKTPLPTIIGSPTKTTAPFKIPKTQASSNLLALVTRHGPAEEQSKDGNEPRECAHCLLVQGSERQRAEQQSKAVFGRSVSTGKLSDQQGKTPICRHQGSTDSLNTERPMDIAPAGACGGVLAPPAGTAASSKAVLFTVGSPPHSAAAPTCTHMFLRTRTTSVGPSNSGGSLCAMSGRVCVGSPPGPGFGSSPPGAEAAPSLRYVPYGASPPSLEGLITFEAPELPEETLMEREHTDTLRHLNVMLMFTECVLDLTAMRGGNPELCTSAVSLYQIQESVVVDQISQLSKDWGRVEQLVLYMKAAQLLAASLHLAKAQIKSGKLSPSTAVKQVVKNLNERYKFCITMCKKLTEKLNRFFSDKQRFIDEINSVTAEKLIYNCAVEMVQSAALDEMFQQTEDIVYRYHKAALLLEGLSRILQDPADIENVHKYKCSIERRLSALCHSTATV

panel of 468 kinases [5] = target: T5, panel of 468 kinases (Homo sapiens, UniProt Q8NI60); details: ADCK3; 1 μM; read-out: % control
T5 construct: purchased KINOMEscan (ScanMAX) service
T5 sequence (Q8NI60 163-647): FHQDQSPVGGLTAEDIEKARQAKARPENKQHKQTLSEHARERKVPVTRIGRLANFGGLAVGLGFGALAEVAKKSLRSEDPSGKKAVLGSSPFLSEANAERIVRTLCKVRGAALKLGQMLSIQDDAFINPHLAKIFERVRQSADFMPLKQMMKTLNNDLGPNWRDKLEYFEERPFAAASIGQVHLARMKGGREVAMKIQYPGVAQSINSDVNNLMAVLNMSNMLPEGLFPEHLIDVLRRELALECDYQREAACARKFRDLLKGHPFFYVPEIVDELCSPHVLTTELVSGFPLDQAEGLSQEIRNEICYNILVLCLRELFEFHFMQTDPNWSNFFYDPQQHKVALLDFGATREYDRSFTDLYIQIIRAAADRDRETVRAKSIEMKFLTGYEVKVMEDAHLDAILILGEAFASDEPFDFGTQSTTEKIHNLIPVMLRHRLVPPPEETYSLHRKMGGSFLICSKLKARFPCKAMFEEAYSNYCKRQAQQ

T1 sequence (Q13555 whole entry): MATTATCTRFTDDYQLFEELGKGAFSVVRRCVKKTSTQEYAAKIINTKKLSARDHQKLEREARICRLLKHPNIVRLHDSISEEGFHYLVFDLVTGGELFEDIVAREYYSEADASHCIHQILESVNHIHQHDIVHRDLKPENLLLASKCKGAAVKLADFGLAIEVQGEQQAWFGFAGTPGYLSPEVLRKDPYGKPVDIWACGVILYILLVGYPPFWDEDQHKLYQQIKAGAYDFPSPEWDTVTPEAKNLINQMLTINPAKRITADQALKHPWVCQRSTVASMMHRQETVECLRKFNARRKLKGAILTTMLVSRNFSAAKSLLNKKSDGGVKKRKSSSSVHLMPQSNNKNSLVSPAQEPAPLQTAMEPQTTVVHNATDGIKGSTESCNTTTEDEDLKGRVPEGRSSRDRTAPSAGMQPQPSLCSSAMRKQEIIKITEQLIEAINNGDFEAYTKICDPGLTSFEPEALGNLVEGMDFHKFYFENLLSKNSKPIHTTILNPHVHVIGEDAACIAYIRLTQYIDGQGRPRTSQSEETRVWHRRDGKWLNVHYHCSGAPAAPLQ

| SMILES | remaining binding at 1 µM (panel of 468 kinases [1]) [%] | remaining binding at 1 µM (panel of 468 kinases [2]) [%] | remaining binding at 1 µM (panel of 468 kinases [3]) [%] | remaining binding at 1 µM (panel of 468 kinases [4]) [%] | remaining binding at 1 µM (panel of 468 kinases [5]) [%] |
| --- | --- | --- | --- | --- | --- |
| CNc1nc(Nc2ccc(C(=O)N3CCC(N4CCOCC4)CC3)c3c2OCO3)nc2[nH]cc(Cl)c12 [Compound 75, (7-((5-chloro-4-(methylamino)-7H-pyrrolo[2,3-d]pyrimidin-2-yl)amino)benzo[d][1,3]dioxol-4-yl)(4-morpholinopiperidin-1-yl)methanone] | 100 | 92 | 47 | 79 | 100 |
| CNc1nc(Nc2ccc(S(=O)(=O)N3CCC(N4CCOCC4)CC3)cc2OC)nc2[nH]cc(Cl)c12 [Compound 12, 5-chloro-N2-(2-methoxy-4-((4-morpholinopiperidin-1-yl)sulfonyl)phenyl)-N4-methyl-7H-pyrrolo[2,3-d]pyrimidine-2,4-diamine] | 100 | 97 | 96 | 96 | 100 |
| CNc1nc(Nc2ccc(P3(=O)CCN(C4CCOCC4)CC3)cc2OC)nc2[nH]cc(Cl)c12 [Compound 77, 4-(4-((5-chloro-4-(methylamino)-7H-pyrrolo[2,3-d]pyrimidin-2-yl)amino)-3-methoxyphenyl)-1-(tetrahydro-2H-pyran-4-yl)-1,4-azaphosphinane 4-oxide] | 97 | 85 | 39 | 91 | 100 |
